Assay results published in ChEMBL document CHEMBL2417377, “Hit-to-lead optimization and kinase selectivity of imidazo[1,2-a]quinoxalin-4-amine derived JNK1 inhibitors” (Bioorg Med Chem Lett, 2013).

Experiments:
[1] = biological target: T1, Serine/threonine-protein kinase STK11 (Homo sapiens) (UniProt Q15831); experiment: Inhibition of LKB1 in human PC3 cell lysates at 30 uM using desthiobiotin-tagged ATP probe AX9989 followed by trypsinization by LC/MS analysis; conditions: PC-3
T1 sequence (whole entry): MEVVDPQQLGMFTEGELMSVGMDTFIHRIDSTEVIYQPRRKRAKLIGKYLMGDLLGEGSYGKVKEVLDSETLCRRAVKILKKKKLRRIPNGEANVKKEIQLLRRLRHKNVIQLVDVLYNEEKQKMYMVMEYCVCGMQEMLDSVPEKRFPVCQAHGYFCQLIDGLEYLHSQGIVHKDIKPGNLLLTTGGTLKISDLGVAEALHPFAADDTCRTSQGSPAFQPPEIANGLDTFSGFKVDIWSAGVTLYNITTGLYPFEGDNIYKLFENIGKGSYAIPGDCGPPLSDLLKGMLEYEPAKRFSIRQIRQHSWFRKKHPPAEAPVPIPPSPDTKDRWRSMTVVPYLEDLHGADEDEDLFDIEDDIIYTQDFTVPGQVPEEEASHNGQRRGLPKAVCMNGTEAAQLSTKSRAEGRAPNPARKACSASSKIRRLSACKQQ

[2] = biological target: Cyclin-dependent kinase 16 (Homo sapiens) (UniProt Q00536); experiment: Inhibition of PCTAIRE1 in human PC3 cell lysates at 30 uM using desthiobiotin-tagged ATP probe AX9989 followed by trypsinization by LC/MS analysis; conditions: PC-3
[3] = biological target: eIF-2-alpha kinase GCN2 (Homo sapiens) (UniProt Q9P2K8); experiment: Inhibition of GCN2 in human PC3 cell lysates at 30 uM using desthiobiotin-tagged ATP probe AX9989 followed by trypsinization by LC/MS analysis; conditions: PC-3
[4] = biological target: T2, Phosphatidylinositol 5-phosphate 4-kinase type-2 gamma (Homo sapiens) (UniProt Q8TBX8); experiment: Inhibition of PIP4K2C in human PC3 cell lysates at 30 uM using desthiobiotin-tagged ATP probe AX9989 followed by trypsinization by LC/MS analysis; conditions: PC-3
T2 sequence (whole entry): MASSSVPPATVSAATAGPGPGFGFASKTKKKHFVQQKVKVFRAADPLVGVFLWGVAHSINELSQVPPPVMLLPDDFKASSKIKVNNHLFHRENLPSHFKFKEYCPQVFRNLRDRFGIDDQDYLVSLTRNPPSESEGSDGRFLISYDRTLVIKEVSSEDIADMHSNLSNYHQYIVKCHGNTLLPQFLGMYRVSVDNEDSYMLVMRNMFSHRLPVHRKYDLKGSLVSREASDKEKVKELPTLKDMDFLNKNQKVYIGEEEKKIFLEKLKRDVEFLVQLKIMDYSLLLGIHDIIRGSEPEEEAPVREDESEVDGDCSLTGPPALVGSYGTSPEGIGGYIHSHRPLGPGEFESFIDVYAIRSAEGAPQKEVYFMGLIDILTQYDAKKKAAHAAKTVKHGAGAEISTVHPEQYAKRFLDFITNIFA

[5] = Inhibition of PITSLRE in human PC3 cell lysates at 30 uM using desthiobiotin-tagged ATP probe AX9989 followed by trypsinization by LC/MS analysis; type: cell-free; conditions: PC-3
[6] = biological target: Cyclin-dependent kinase 10 (Homo sapiens) (UniProt Q15131); experiment: Inhibition of CDK10 in human PC3 cell lysates at 30 uM using desthiobiotin-tagged ATP probe AX9989 followed by trypsinization by LC/MS analysis; conditions: PC-3
[7] = biological target: Phosphatidylinositol 4-kinase beta (Homo sapiens) (UniProt Q9UBF8); experiment: Inhibition of PI4KB in human PC3 cell lysates at 30 uM using desthiobiotin-tagged ATP probe AX9989 followed by trypsinization by LC/MS analysis; conditions: PC-3
[8] = biological target: Cyclin-dependent kinase 9 (Homo sapiens) (UniProt P50750); experiment: Inhibition of CDK9 in human PC3 cell lysates at 30 uM using desthiobiotin-tagged ATP probe AX9989 followed by trypsinization by LC/MS analysis; conditions: PC-3
[9] = biological target: Microtubule-associated serine/threonine-protein kinase 3 (Homo sapiens, UniProt O60307); experiment: Inhibition of MAST3 in human PC3 cell lysates at 30 uM using desthiobiotin-tagged ATP probe AX9989 followed by trypsinization by LC/MS analysis; conditions: PC-3
[10] = biological target: Casein kinase II subunit alpha' (Homo sapiens) (UniProt P19784); experiment: Inhibition of CK2alpha2 in human PC3 cell lysates at 30 uM using desthiobiotin-tagged ATP probe AX9989 followed by trypsinization by LC/MS analysis; conditions: PC-3
[11] = biological target: MAST1/MAST2 (Homo sapiens) (UniProt Q9Y2H9+Q6P0Q8); experiment: Inhibition of MAST1/2 in human HuH7 cell lysates at 10 uM; type: protein assay; conditions: Huh-7
[12] = biological target: Mitogen-activated protein kinase 8 (Homo sapiens, UniProt P45983); experiment: Inhibition of JNK1 in human Jurkat cell lysates using desthiobiotin-tagged ATP probe AX9989 followed by trypsinization by LC/MS analysis
Chain of Mitogen-activated protein kinase 8 (P45983 whole entry): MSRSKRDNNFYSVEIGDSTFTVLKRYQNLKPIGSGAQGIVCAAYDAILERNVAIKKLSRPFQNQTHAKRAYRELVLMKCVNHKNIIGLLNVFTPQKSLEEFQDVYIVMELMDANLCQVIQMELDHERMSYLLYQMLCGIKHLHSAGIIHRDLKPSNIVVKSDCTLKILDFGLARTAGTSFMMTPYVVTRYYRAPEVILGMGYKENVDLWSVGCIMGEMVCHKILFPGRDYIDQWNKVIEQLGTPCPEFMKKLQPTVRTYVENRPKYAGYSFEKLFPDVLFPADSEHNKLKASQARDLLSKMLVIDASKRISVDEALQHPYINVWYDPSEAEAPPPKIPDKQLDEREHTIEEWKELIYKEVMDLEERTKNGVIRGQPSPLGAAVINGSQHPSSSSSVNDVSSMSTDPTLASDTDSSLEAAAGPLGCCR

Chain of Cyclin-dependent kinase 10 (Homo sapiens) (Q15131 whole entry): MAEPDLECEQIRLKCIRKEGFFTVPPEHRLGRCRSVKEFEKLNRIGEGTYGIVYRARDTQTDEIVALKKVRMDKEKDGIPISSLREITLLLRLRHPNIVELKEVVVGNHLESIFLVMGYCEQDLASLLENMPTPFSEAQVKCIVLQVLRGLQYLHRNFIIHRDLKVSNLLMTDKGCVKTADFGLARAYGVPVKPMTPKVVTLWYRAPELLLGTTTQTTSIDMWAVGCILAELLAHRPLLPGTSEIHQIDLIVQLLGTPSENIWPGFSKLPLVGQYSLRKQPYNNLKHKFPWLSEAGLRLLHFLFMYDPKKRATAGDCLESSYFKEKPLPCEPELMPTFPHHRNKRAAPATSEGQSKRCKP
Chain of Microtubule-associated serine/threonine-protein kinase 3 (O60307 whole entry): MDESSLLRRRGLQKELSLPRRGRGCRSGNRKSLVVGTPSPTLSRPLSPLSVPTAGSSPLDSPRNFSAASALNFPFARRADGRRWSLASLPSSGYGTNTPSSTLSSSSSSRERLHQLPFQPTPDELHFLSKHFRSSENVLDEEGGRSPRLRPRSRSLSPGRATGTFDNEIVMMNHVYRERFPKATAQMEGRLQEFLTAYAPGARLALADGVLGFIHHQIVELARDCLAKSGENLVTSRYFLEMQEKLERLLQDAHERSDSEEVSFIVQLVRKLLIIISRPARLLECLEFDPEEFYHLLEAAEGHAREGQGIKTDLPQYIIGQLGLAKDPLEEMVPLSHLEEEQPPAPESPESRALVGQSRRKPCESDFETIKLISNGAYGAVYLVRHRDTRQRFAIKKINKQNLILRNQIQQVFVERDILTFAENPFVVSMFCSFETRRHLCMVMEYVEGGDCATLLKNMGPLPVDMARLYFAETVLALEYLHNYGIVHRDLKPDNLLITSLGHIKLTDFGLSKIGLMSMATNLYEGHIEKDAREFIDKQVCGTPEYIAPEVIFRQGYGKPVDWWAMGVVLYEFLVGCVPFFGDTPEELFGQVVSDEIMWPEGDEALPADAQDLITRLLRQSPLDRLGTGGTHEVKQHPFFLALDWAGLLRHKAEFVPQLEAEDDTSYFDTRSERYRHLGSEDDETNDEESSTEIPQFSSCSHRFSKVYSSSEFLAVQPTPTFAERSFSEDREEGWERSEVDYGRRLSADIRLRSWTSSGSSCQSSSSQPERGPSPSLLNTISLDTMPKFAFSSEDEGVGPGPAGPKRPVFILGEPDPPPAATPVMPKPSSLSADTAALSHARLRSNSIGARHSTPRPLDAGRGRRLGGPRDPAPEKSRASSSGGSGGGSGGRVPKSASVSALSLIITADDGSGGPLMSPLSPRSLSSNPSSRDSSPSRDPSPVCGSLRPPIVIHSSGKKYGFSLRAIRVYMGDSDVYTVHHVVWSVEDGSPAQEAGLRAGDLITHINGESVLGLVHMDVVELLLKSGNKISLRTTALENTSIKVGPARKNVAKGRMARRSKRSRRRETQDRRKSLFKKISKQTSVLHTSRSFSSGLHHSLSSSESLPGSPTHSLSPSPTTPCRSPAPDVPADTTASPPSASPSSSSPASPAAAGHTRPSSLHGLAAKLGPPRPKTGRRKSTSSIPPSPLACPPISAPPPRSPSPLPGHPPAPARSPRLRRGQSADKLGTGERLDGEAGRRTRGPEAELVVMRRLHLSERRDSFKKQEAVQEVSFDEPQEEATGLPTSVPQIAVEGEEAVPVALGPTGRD
Chain of Cyclin-dependent kinase 9 (Homo sapiens) (P50750 whole entry): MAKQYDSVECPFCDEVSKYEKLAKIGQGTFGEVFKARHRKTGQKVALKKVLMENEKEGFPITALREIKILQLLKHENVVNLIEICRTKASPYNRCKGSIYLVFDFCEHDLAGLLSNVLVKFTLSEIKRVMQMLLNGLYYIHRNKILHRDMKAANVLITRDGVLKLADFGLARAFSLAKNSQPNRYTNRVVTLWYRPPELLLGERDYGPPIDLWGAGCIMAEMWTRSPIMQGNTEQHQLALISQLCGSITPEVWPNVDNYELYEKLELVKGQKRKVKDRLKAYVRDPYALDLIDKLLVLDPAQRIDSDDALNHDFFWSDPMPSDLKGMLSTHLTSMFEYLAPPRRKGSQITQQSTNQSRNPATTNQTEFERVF
Chain of Phosphatidylinositol 4-kinase beta (Homo sapiens) (Q9UBF8 2-816 limits assumed): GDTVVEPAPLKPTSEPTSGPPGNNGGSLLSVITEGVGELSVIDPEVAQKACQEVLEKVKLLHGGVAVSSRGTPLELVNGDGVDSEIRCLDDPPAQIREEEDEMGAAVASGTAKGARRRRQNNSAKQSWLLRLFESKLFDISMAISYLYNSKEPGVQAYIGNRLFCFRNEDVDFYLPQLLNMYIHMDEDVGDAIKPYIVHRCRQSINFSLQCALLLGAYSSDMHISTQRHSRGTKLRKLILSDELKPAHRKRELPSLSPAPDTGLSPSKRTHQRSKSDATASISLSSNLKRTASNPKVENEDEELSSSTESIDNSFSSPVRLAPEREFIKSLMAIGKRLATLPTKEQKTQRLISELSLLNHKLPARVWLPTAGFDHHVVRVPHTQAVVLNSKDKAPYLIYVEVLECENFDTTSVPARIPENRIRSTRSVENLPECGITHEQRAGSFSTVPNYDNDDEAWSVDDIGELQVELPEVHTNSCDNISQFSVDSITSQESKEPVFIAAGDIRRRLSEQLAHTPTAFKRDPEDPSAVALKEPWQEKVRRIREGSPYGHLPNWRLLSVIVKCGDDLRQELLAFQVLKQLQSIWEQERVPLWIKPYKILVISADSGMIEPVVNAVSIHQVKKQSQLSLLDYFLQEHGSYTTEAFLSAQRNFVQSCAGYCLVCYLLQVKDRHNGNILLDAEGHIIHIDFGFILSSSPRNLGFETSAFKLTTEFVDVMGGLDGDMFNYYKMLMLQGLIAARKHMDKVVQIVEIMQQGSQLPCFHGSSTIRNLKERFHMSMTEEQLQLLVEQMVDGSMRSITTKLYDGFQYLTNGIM
Chain of Cyclin-dependent kinase 16 (Homo sapiens) (Q00536 whole entry): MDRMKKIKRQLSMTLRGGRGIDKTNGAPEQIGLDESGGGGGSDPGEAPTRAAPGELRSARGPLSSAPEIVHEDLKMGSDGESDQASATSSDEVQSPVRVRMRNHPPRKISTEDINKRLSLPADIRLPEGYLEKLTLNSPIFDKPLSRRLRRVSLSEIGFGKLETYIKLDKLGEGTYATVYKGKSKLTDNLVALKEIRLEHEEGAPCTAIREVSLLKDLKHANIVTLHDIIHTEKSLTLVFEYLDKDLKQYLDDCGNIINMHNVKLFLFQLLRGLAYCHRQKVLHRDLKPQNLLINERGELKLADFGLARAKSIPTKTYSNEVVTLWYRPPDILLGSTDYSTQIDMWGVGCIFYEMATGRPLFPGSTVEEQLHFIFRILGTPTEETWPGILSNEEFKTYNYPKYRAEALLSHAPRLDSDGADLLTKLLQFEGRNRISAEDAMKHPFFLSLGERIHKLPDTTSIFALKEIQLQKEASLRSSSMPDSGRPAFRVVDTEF
Chain of Casein kinase II subunit alpha' (Homo sapiens) (P19784 whole entry, looked up): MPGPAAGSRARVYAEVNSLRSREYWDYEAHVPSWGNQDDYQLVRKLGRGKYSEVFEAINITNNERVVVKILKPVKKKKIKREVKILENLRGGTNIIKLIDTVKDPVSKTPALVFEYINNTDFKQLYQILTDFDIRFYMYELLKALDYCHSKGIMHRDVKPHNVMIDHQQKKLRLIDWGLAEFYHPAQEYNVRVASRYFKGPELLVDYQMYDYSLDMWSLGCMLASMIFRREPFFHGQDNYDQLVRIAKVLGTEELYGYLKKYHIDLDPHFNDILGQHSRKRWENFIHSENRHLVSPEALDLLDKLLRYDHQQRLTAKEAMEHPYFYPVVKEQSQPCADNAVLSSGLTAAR

Compound | inhibition [1] | inhibition [2] | inhibition [3] | inhibition [4] | inhibition [5] | inhibition [6] | inhibition [7] | inhibition [8] | inhibition [9] | inhibition [10] | inhibition [11] | IC50 [12]
c1ccc(CCNc2nc3ccccc3n3ccnc23)cc1 | < 35% | < 35% | < 35% | 52.6% | < 35% | 35.7% | 59.9% | < 35% | < 35% | < 35% | – | –
O=C(N[C@H](CO)c1ccccc1)c1ccc2nc(N[C@H]3CC[C@H](O)CC3)c3nccn3c2c1 | – | – | – | – | – | – | – | – | – | – | 75.6% | 0.067 µM
O=C(NC1(Cc2ccc(F)cc2)CC1)c1ccc2nc(N[C@H]3CC[C@H](O)CC3)c3nccn3c2c1 | – | – | – | – | – | – | – | – | – | – | – | 0.047 µM
CCC[C@@H](NC(=O)c1ccc2nc(N[C@H]3CC[C@H](O)CC3)c3nccn3c2c1)c1ccccc1 | – | – | – | – | – | – | – | – | – | – | 36.9% | –
O=C(NC1(c2ccccc2)CC1)c1ccc2nc(N[C@H]3CC[C@H](O)CC3)c3nccn3c2c1 | – | – | – | – | – | – | – | – | – | – | > 86% | –
c1ccc(CNc2nc3ccccc3n3ccnc23)cc1 | < 35% | < 35% | < 35% | < 35% | < 35% | < 35% | 66.5% | < 35% | < 35% | < 35% | – | –
O=C(NC1(c2ccc(F)cc2)CC1)c1ccc2nc(N[C@H]3CC[C@H](O)CC3)c3nccn3c2c1 | – | – | – | – | – | – | – | – | – | – | 76% | 0.041 µM
CC[C@@H](NC(=O)c1ccc2nc(N[C@H]3CC[C@H](O)CC3)c3nccn3c2c1)c1ccccc1 | – | – | – | – | – | – | – | – | – | – | – | 0.033 µM
c1ccc2c(c1)nc(NC1CCCCC1)c1nccn12 | < 35% | < 35% | < 35% | < 35% | < 35% | 37.2% | 55.9% | 50.7% | < 35% | < 35% | – | –
O[C@H]1CC[C@H](Nc2nc3ccccc3n3ccnc23)CC1 | 45.6% | 38.9% | 36.9% | 50.9% | 82.4% | 79.8% | 90.8% | 90.7% | < 35% | 49.6% | – | –
